Where a name gives a salt, the structure may show the parent alone.
Columns and labels:
A172 = test: MTT cell viability assay; type: cell-based; conditions: Homo sapiens
Text: (§1) All of the tested cell lines were acquired from the American Type Culture Collection (ATCC, Manassas, VA, USA), including human breast cancer cell lines (MCF-7, MDA-MB-231), human gastric cancer cell line (AGS), human colorectal cancer cell lines (HT-29, DLD-1), human glioblastoma cancer cell lines (T98G, A172), mouse astrocyte type I clone (C8-D1A), human normal epithelial breast cells (MCF-10A) and primary dermal fibroblast (HDFa). Such cell lines as AGS, MCF-7, MDA-MB-231, A172, T98G, C8-D1A, and primary dermal fibroblast (HDFa) were cultured in complete medium–DMEM (Corning, Kennebunk, ME, USA). RPMI-1640 (ATCC, Manassas, VA, USA) was used for the DLD-1 cell line, and McCoy’s 5A (PAN-Biotech, Aidenbach, Germany) for the HT-29 cell line. To all utilized media additionally was added 10% fetal bovine serum (FBS) (Eurx, Gdansk, Poland) and 1% penicillin and streptomycin solution (Corning, Kennebunk, ME, USA). MCF-10A cells were incubated in MEGM (Mammary Epithelial Cell Growth Medium) BulletKit supplemented with penicillin/streptomycin cocktail and 5% horse serum. All cells were cultured at 37 °C in an atmosphere with 5% CO₂ in tissue culture dishes (Sarstedt, Numbrecht, Germany). For experiments, cells were washed with phosphate-buffered saline (PBS) (Corning, Kennebunk, ME, USA) followed by the addition of 0.05% trypsin with 0.02% EDTA (Corning, Kennebunk, ME, USA). Scepter 3.0 cell counter (Merck Millipore, Burlington, MA, USA) was applied before each seeding to calculate the number of cells. For the next analyses, cells were reseeded in 6-well plates, 24-well plates, and 96-well plates.
(§2) MTT (3-(4,5-dimethylthiazol-2-yl)-2,5-diphenyltetrazolium bromide) assay method was utilized to analyze compound effects on cell viability. All cell lines were seeded in 96-well plates with 1 × 10^4 cells per well. After 24 h, cells were treated with the tested compounds and reference drug at concentrations of 0.1, 1, 2.5, 5, 10, and 20 µM for 24, 48, or 72 h. Next, a solution of 3-(4,5-dimethyl-2-thiazolyl)-2,5-diphenyl-2H-tetrazolium bromide (Sigma-Aldrich, St. Louis, MO, USA) in PBS with a concentration of 5 mg/mL was prepared. After the incubation with tested compounds, 10 µL of the prepared MTT solution was applied to each well, followed by 2 h of incubation at 37 °C. Next, cells underwent lysis by adding 100 µL of pre-prepared lysing buffer (containing 25 mM HCl, 2% acetic acid, 3% DMF, and 5% SDS, with a pH of 4.7). The absorbance was measured using a UV-VIS Helios Gamma (Unicam/ThermoFisher Scientific Inc., Cleveland, OH, USA) at 570 nm wavelength. The cells incubated with vehicle substance (0.1% DMSO) were taken as controls.
(§3) To investigate the cytotoxic potential of the newly synthesized compounds, a comprehensive assessment was conducted utilizing the MTT assay. This assay was applied on a diverse panel of cell lines, such as human breast cancer cell lines (MCF-7 and MDA-MB-231), human gastric cancer cell line (AGS), human colorectal cancer cell lines (HT-29 and DLD-1), human glioblastoma cancer cell lines (T98G and A172), mouse astrocyte type I clone cells (C8-D1A), primary dermal fibroblast (HDFa), and human normal breast cells (MCF-10A) for 24, 48, and/or 72 h.

HT-29 = test: MTT cell viability assay; type: cell-based; conditions: Homo sapiens
Text: as §1, §2, §3

T98G = test: MTT cell viability assay; type: cell-based; conditions: Homo sapiens
Text: as §1, §2, §3

MCF-7 cells [1] = test: Clonogenic assay; type: cell-based, human; conditions: 24 h treatment, 10-day endpoint
Procedure: The clonogenic assay was performed in accordance with the published methodology. MCF-7 cells were seeded in 24-well plates at 2.5 × 10^2 cells per well in 1 mL medium. Afterwards, they were left in an incubator at 37 °C for 24 h to attach to the wells. […] After the treatment, the medium was changed to a fresh one and left for 10 days, with an additional change in medium for the fresh one on the 7th day. Next, colonies formed by the seeded cells were washed, fixed for 10 min at 4 °C with 90% methanol, and stained with crystal violet solution (0.1% of crystal violet dissolved in 25% methanol). Afterwards, the plates were washed and dried at room temperature. The wells were photographed and analyzed using ImageJ software version 1.54k (Bethesda, MD, USA), with colonies defined as clusters of fifty or more cells.
Colonies formation was assessed after a 10-day incubation period following the treatment.

MCF-7 cells [2] = test: JC-1 mitochondrial membrane potential, flow cytometry; type: cell-based, human; conditions: 5 µM, 24 h, MCF-7, JC-1
Procedure: Lipophilic fluorochrome JC-1 (5,5′,6,6′-tetrachloro-1,1′,3,3′-tetraethylbenzimidazolcarbocyanine iodide) (BD Biosciences, San Diego, CA, USA) was applied to determine the novel structures’ effects on the MMP [35]. MCF-7 cells were seeded on 6-well plates at 5 × 10^6 cells per well, followed by incubation for 24 h. Afterwards, the cells were treated for 24 h with new 4-thiazolidinone derivatives (Les-6416, Les-6418, Les-6381, Les-6423, and Les-6424) in a concentration of 5 µM and the reference drug doxorubicin hydrochloride in a concentration of 0.5 µM. Then, cells were collected at a concentration of 1 × 10^6 cells/mL and washed two times with PBS. Next, 0.5 mL of the pre-prepared JC-1 working solution was added to each sample in accordance with the instructions of the manufacturer, followed by incubation at 37 °C for 15 min in a CO2 incubator. After that, an assay buffer was added to each sample to wash the cells several times. Afterwards, 0.5 mL from each sample was transferred to the tubes for immediate assessment using a BD FACSCanto II flow cytometer (Becton Dickinson Biosciences, San Jose, CA, USA). For each sample, 1 × 10^4 events were analyzed. The obtained results were investigated by applying FACSDiva software Version 6.1.3 (BD Biosciences Systems, San Jose, CA, USA).
A critical determinant of the induction of the intrinsic pathway of apoptosis is the decrease in mitochondrial membrane potential (ΔΨm). To investigate the effects of the novel 4-thiazolidinones on mitochondrial membrane potential, flow cytometry analysis of JC-1 dye was applied. JC-1 is a carbocyanine lipophilic cationic fluorochrome whose fluorescence depends on the MMP. Red fluorescence is emitted in viable cells with healthy mitochondria; however, apoptotic or necrotic cells with damaged mitochondria emit green fluorescence.

| Compound | IC50 (A172; A 172, A172 24 h) | IC50 (A172; A 172, A172 48 h) | IC50 (HT-29; HT-29 24 h) | IC50 (HT-29; HT-29 48 h) | IC50 (T98G; T98G 24 h) | IC50 (T98G; T98G 48 h) | survival fraction (MCF-7 cells [1]; 2.5 µM) | survival fraction (MCF-7 cells [1]; 5 µM) | Reduced ΔΨm, cell population (MCF-7 cells [2]) | survival fraction (MCF-7 cells [1]; 1, 0.5, and 0.1 µM) |
| --- | --- | --- | --- | --- | --- | --- | --- | --- | --- | --- |
| COc1cc(NC2=NC(=O)C(=Cc3ccc4cc[nH]c4c3)S2)cc(OC)c1OC [Les-6416, 5-((1H-Indol-6-yl)methylene)-2-((3,4,5-trimethoxyphenyl)amino)thiazol-4(5H)-one] | > 20 µM | > 20 µM | > 20 µM | 6.58 ± 0.37 µM | > 20 µM | > 20 µM | 5.89 ± 0.71% | 1.35 ± 1.42% | 33.80 ± 0.85% | – |
| COc1cc(NC2=NC(=O)C(=Cc3c[nH]c4ccccc34)S2)cc(OC)c1OC [Les-6418, 5-((1H-Indol-3-yl)methylene)-2-((3,4,5-trimethoxyphenyl)amino)thiazol-4(5H)-one] | > 20 µM | > 20 µM | > 20 µM | 7.77 ± 0.91 µM | 16.9 ± 1.58 µM | > 20 µM | 38.83 ± 1.66% | 12.27 ± 9.27% | 22.35 ± 3.06% | – |
| COc1cc(NC2=NC(=O)C(=Cc3cccs3)S2)cc(OC)c1OC [Les-6423, 5-(Thiophen-2-ylmethylene)-2-((3,4,5-trimethoxyphenyl)amino)thiazol-4(5H)-one] | > 20 µM | > 20 µM | > 20 µM | 4.41 ± 0.35 µM | > 20 µM | > 20 µM | – | – | – | – |
| COc1ccc(C=C2SC(Nc3cc(OC)c(OC)c(OC)c3)=NC2=O)cc1 [Les-6381, 5-(4-Methoxybenzylidene)-2-((3,4,5-trimethoxyphenyl)amino)thiazol-4(5H)-one] | > 20 µM | 8.65 ± 0.52 µM | > 20 µM | 4.58 ± 0.46 µM | 13.1 ± 0.24 µM | 4.09 ± 0.1 µM | – | – | 27.95 ± 1.43% | – |
| COc1cccc2c1C(=O)c1c(O)c3c(c(O)c1C2=O)C[C@@](O)(C(=O)CO)C[C@@H]3O[C@H]1C[C@H](N)[C@H](O)[C@H](C)O1 [DOX, Doxorubicin hydrochloride, reference compound] | > 20 µM | 12.9 ± 0.89 µM | > 20 µM | 0.3 ± 0.04 µM | > 20 µM | > 20 µM | – | – | – | 0% |
